Results published in patent US8426437B2, “Pyrroloquinoline derivatives and their use as protein kinases inhibitors” (Pierre Fabre Medicament, priority 2005, dated 2013).
pIC50: −log10 of the molar value. Counter-ions that a name gives are not always drawn.

How the values were obtained:
Format in all cases: biochemical
TrkA = target: T1, TrkA (Homo sapiens, UniProt P04629); experiment: Inhibition of kinase TrkA (Kinase-Glo); details: TrkA 4 μg/ml, 30 μM ATP, two hours at 30° C.
T1 construct: purchased Upstate 14-571
T1 sequence (P04629 33-796): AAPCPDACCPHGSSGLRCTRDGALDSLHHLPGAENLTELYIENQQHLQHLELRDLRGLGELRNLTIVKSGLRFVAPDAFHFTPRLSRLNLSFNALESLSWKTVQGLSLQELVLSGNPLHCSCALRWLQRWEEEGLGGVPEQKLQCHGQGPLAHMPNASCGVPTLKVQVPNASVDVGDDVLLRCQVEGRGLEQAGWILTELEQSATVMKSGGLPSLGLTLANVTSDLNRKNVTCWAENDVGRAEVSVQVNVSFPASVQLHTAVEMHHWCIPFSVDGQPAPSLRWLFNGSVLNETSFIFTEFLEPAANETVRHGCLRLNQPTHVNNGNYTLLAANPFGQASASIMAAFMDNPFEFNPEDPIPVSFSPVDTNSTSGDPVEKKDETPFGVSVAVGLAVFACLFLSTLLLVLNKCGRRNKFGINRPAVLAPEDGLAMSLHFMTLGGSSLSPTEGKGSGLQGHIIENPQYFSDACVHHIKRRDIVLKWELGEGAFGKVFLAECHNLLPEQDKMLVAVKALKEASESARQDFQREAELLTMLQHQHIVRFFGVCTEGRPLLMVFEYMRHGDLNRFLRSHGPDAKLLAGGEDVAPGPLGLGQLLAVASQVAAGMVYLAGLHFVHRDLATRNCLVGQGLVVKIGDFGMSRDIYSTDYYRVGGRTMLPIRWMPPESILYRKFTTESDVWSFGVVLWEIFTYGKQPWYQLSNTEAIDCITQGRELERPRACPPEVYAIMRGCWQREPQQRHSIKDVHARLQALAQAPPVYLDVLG
Protocol: Protein TrkA (Upstate 14-571; batch #25634U) is incubated at a concentration of 4 μg/ml in a buffer containing 8 mM of MOPS/NaOH pH7, 0.2 mM EDTA, 40 mM MgAc (Sigma #229768), 1 mM DTT (Fluka #43816), NaOV 1 mM, 0.01% Triton Tx100, in the presence of 1 mg/ml of peptide substrate poly-EY (Upstate #P0275), and 30 μM of ATP.
The dilution buffer for TrkA is as follows: 20 mM MOPS/NaOH pH7, 1 mM EDTA, 5% glycerol, 0.01% Brij35, 0.1% 2-mercapto, 1 mg/ml BSA.
(§1) The compound to be tested is first added to the enzyme to give a reaction volume of 50 μl. The dilution of the compounds of the invention is distributed so as to obtain a scale of final concentrations between 10 nM and 30 μM.
(§2) After incubation of the reaction mixture for two hours at 30° C., the level of ATP that remains is assayed using the Kinase-Glo Luminescent Kinase Assay (Promega #V6712) according to the conditions recommended by the supplier. The luminescence induced is read in a plate reader (Envision-Perkin Elmer).

TrkB = target: T2, TrkB (Homo sapiens, UniProt Q16620); experiment: Inhibition of kinase TrkB (Kinase-Glo); details: TrkB 4 μg/ml, 40 μM ATP, two hours at 30° C.
T2 construct: purchased Upstate 14-507
T2 sequence (Q16620 32-822): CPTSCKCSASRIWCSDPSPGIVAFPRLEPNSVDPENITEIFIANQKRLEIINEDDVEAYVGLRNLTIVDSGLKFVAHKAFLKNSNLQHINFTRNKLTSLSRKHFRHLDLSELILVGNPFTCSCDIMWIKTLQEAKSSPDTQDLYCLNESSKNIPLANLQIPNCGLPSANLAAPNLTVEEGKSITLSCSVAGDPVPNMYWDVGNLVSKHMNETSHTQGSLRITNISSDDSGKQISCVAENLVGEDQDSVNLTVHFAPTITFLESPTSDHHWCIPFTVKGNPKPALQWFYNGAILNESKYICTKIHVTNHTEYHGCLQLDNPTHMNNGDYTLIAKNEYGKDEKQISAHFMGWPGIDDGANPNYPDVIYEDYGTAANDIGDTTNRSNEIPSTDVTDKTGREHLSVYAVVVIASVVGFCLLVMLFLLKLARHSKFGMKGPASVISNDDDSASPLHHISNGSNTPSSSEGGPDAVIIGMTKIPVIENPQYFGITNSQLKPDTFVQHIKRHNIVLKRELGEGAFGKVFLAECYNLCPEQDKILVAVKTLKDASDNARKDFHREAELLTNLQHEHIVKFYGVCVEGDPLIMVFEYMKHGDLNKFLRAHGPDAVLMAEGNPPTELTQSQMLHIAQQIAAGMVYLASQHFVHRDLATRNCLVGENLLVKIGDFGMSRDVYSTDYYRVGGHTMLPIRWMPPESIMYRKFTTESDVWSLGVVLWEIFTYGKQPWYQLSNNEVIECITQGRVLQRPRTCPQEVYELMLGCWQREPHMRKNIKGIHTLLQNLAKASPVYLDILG
Protocol: Protein TrkB (Upstate 14-507; batch #25578U) is incubated at a concentration of 4 μg/ml in a buffer containing 8 mM of MOPS/NaOH pH7, 0.2 mM EDTA, 40 mM MgAc (Sigma #229768), 1 mM DTT (Fluka #43816), NaOV 1 mM, 25 mM 2-glycerolphosphate (Sigma #G9891), in the presence of 2.5 mg/ml of peptide substrate poly-EY (Upstate #P0275), and 40 μM of ATP.
The dilution buffer for TrkB is as follows: 20 mM MOPS/NaOH pH7, 1 mM EDTA, 5% glycerol, 0.01% Brij35, 0.1% 2-mercapto, 1 mg/ml BSA.
as §1, §2

RET = target: T3, RET (Homo sapiens, UniProt P07949); experiment: Inhibition of RET kinase activity, recombinant RET method (Kinase-Glo); details: RET 2 μg/ml, poly-EY4 substrate, 20 μM ATP, two hours at 30° C.
T3 construct: purchased Upstate 14-570MG
T3 sequence (P07949 29-1114): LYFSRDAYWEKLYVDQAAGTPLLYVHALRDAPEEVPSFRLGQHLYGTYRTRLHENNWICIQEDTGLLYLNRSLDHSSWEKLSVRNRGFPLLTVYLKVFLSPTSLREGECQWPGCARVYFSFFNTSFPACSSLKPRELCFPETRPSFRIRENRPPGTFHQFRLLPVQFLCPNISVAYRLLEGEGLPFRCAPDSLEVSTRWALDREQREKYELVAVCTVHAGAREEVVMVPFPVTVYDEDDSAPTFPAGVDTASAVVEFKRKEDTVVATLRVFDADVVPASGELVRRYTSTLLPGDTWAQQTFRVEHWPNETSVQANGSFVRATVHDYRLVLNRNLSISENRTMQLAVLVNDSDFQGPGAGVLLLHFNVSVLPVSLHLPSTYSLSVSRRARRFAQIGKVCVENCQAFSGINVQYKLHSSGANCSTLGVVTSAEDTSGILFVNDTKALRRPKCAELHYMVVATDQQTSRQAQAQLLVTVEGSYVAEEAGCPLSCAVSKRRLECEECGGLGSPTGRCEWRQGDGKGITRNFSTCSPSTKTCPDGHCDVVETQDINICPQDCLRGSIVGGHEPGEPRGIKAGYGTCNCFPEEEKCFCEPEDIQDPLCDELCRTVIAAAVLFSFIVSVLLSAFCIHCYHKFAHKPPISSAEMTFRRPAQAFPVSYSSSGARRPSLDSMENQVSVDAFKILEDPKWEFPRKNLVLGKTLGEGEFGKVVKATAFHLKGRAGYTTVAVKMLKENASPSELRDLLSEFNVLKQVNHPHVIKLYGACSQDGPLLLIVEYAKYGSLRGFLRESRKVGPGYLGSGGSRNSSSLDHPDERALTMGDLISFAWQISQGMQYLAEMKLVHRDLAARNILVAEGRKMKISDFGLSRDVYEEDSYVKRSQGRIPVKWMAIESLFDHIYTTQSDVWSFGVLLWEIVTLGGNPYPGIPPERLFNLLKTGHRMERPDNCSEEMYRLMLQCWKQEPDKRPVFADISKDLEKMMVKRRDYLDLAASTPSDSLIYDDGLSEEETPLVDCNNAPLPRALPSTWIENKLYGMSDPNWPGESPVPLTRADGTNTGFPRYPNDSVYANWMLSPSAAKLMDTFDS
In short: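 Recombinant RET at 2 μg/ml in 20 mM MOPS/NaOH pH 7.0, 1 mM EDTA, 5% glycerol, 0.01% Brij35, 0.1% 2-mercaptoethanol, 1 mg/ml BSA; compounds 10 nM–30 μM final.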

PIM-1 = target: T4, PIM-1 (Homo sapiens, UniProt P11309); experiment: Inhibition of kinase PIM-1 (Kinase-Glo); details: PIM-1 0.625 μg/ml, 10 μM ATP, forty minutes at 30° C.
T4 construct: purchased Upstate 14-573
T4 sequence (P11309 whole entry): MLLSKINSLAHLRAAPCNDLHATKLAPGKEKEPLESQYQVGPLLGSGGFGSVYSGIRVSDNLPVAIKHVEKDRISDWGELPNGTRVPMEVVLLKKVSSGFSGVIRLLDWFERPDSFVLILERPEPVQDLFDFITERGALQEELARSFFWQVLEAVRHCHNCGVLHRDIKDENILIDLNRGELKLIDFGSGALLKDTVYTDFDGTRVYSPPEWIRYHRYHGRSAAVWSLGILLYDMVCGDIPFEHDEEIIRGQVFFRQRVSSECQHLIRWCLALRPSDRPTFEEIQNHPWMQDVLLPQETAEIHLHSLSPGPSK
Protocol: Protein PIM-1 (Upstate #14-573 batch 25864U) is incubated at a concentration of 0.625 μg/ml in a buffer containing 8 mM of MOPS/NaOH pH7, 0.2 mM EDTA, 5 mM MgAc (Sigma #229768), 0.01% Triton Tx100, in the presence of 70 μM of peptide substrate S6 Kinase/Rsk2 (Upstate #12-243), and 10 μM of ATP.
The dilution buffer for PIM-1 is as follows: 20 mM MOPS/NaOH pH7, 1 mM EDTA, 5% glycerol, 0.01% Brij35, 0.1% 2-mercapto, 1 mg/ml BSA
as §1
as §2, with “forty minutes” for “two hours”

pIC50 (TrkA) | pIC50 (TrkB) | pIC50 (RET) | pIC50 (PIM-1) | Structure (SMILES)
5.00 to 6.00 | 5.00 to 6.00 | 5.00 to 6.00 |  | CCOC(=O)c1c[nH]c2c(=O)[nH]c3ccc(-c4ccnc(Nc5ccccc5)n4)cc3c12 [Compound 266, 4-Oxo-8-(2-phenylamino-pyrimidin-4-yl)-4,5-dihydro-3H-pyrrolo[2,3-c]quinoline-1-ethyl carboxylate]
5.00 to 6.00 | 5.00 to 6.00 | 6.00 to 7.00 |  | CCOC(=O)c1c[nH]c2c(=O)[nH]c3ccc(-c4cccc(N)c4)cc3c12 [Compound 234, Trifluoroacetate of 8-(3-aminophenyl)-4-oxo-4,5-dihydro-3H-pyrrolo[2,3-c]quinoline-1-ethyl carboxylate]
5.00 to 6.00 | 5.00 to 6.00 | 6.00 to 7.00 | 5.00 to 6.00 | CCOC(=O)c1c[nH]c2c(=O)[nH]c3ccc(-c4cccc(CO)c4)cc3c12 [Compound 240, 8-(3-Hydroxymethyl-phenyl)-4-oxo-4,5-dihydro-3H-pyrrolo[2,3-c]quinoline-1-ethyl carboxylate]
4.00 to 5.00 | 4.00 to 5.00 | 6.00 to 7.00 | 5.00 to 6.00 | CCOC(=O)c1c[nH]c2c(=O)[nH]c3ccc(-c4cccc(CN(C)C)c4)cc3c12 [Compound 242, 8-(3-Dimethylaminomethyl-phenyl)-4-oxo-4,5-dihydro-3H-pyrrolo[2,3-c]quinoline-1-ethyl carboxylate]
5.00 to 6.00 | 5.00 to 6.00 | 6.00 to 7.00 |  | CCOC(=O)c1c[nH]c2c(=O)[nH]c3ccc(N(C)S(=O)(=O)c4ccccc4)cc3c12 [Compound 58, 8-(Benzenesulfonyl-methyl-amino)-4-oxo-4,5-dihydro-3H-pyrrolo[2,3-c]quinoline-1-ethyl carboxylate]
4.00 to 5.00 | 4.00 to 5.00 | 6.00 to 7.00 | 4.00 to 5.00 | CCOC(=O)c1c[nH]c2c(=O)[nH]c3ccc(-c4cc[nH]n4)cc3c12 [Compound 282, 4-Oxo-8-(1H-pyrazol-3-yl)-4,5-dihydro-3H-pyrrolo[2,3-c]quinoline-1-ethyl carboxylate]
5.00 to 6.00 | 5.00 to 6.00 | > 7.00 |  | CCOC(=O)c1c[nH]c2c(=O)[nH]c3ccc(S(=O)(=O)Nc4ccccc4)cc3c12 [Compound 2, 4-Oxo-8-phenylsulfamoyl-4,5-dihydro-3H-pyrrolo[2,3-c]quinoline-1-ethyl carboxylate]
5.00 to 6.00 | 5.00 to 6.00 | 5.00 to 6.00 |  | CCOC(=O)c1c[nH]c2c(=O)[nH]c3ccc(NS(=O)(=O)c4ccccc4F)cc3c12 [Compound 45, 8-(2-Fluoro-benzenesulfonylamino)-4-oxo-4,5-dihydro-3H-pyrrolo[2,3-c]quinoline-1-ethyl carboxylate]
5.00 to 6.00 | 5.00 to 6.00 | 6.00 to 7.00 |  | CCOC(=O)c1c[nH]c2c(=O)[nH]c3ccc(NS(=O)(=O)c4ccc(F)cc4)cc3c12 [Compound 43, 8-(4-Fluoro-benzenesulfonylamino)-4-oxo-4,5-dihydro-3H-pyrrolo[2,3-c]quinoline-1-ethyl carboxylate]
5.00 to 6.00 | 5.00 to 6.00 | 6.00 to 7.00 |  | CCOC(=O)c1c[nH]c2c(=O)[nH]c3ccc(S(=O)(=O)N4CCCC4)cc3c12 [Compound 162, 4-Oxo-8-(pyrrolidine-1-sulfonyl)-4,5-dihydro-3H-pyrrolo[2,3-c]quinoline-1-ethyl carboxylate]
4.00 to 5.00 | 4.00 to 5.00 | 6.00 to 7.00 |  | CCOC(=O)c1c[nH]c2c(=O)[nH]c3ccc(S(=O)(=O)Nc4ccc(C)cc4)cc3c12 [Compound 6, 4-Oxo-8-p-tolylsulfamoyl-4,5-dihydro-3H-pyrrolo[2,3-c]quinoline-1-ethyl carboxylate]
5.00 to 6.00 | 6.00 to 7.00 | 6.00 to 7.00 | 5.00 to 6.00 | CCOC(=O)c1c[nH]c2c(=O)[nH]c3ccc(-c4cccc(O)c4)cc3c12 [Compound 237, 8-(3-Hydroxy-phenyl)-4-oxo-4,5-dihydro-3H-pyrrolo[2,3-c]quinoline-1-ethyl carboxylate]
5.00 to 6.00 | 4.00 to 5.00 | > 7.00 | 4.00 to 5.00 | CCCOC(=O)c1c[nH]c2c(=O)[nH]c3ccc(S(=O)(=O)N(C)C4CCNCC4)cc3c12 [Compound 120, 8-(Methyl-piperidin-4-yl-sulfamoyl)-4-oxo-4,5-dihydro-3H-pyrrolo[2,3-c]quinoline-1-propyl carboxylate]
4.00 to 5.00 | 4.00 to 5.00 | > 7.00 | 5.00 to 6.00 | CCCCOC(=O)c1c[nH]c2c(=O)[nH]c3ccc(S(=O)(=O)NC4CCNCC4)cc3c12 [Compound 115, 4-Oxo-8-(piperidin-4-ylsulfamoyl)-4,5-dihydro-3H-pyrrolo[2,3-c]quinoline-1-carboxylate of butyl]
5.00 to 6.00 | 5.00 to 6.00 | 6.00 to 7.00 |  | CCOC(=O)c1c[nH]c2c(=O)[nH]c3ccc(NS(=O)(=O)c4cccs4)cc3c12 [Compound 56, 4-Oxo-8-(thiophene-2-sulfonylamino)-4,5-dihydro-3H-pyrrolo[2,3-c]quinoline-1-ethyl carboxylate]
5.00 to 6.00 | 5.00 to 6.00 | 6.00 to 7.00 |  | CCOC(=O)c1c[nH]c2c(=O)[nH]c3ccc(NS(=O)(=O)c4cccc(F)c4)cc3c12 [Compound 44, 8-(3-Fluoro-benzenesulfonylamino)-4-oxo-4,5-dihydro-3H-pyrrolo[2,3-c]quinoline-1-ethyl carboxylate]
4.00 to 5.00 | 5.00 to 6.00 | 4.00 to 5.00 |  | CCOC(=O)c1c[nH]c2c(=O)[nH]c3ccc(NS(=O)(=O)c4ccc(C(C)(C)C)cc4)cc3c12 [Compound 49, 8-(4-tert-Butyl-benzenesulfonylamino)-4-oxo-4,5-dihydro-3H-pyrrolo[2,3-c]quinoline-1-ethyl carboxylate]
4.00 to 5.00 | 4.00 to 5.00 | 6.00 to 7.00 |  | CCOC(=O)c1c[nH]c2c(=O)[nH]c3ccc(S(=O)(=O)Nc4cccc(OC)c4)cc3c12 [Compound 8, 8-(3-Methoxy-phenylsulfamoyl)-4-oxo-4,5-dihydro-3H-pyrrolo[2,3-c]quinoline-1-ethyl carboxylate]
4.00 to 5.00 | 4.00 to 5.00 | 5.00 to 6.00 |  | CCOC(=O)c1c[nH]c2c(=O)[nH]c3ccc(-c4ccnc(Nc5nc6ccccc6[nH]5)n4)cc3c12 [Compound 267, 8-[2-(1H-Benzoimidazol-2-ylamino)-pyrimidin-4-yl]-4-oxo-4,5-dihydro-3H-pyrrolo[2,3-c]quinoline-1-ethyl carboxylate]
5.00 to 6.00 | 5.00 to 6.00 | 5.00 to 6.00 |  | COC(=O)c1c[nH]c2c(=O)[nH]c3ccc(S(=O)(=O)NC4CCCCC4)cc3c12 [Compound 111, 8-Cyclohexylsulfamoyl-4-oxo-4,5-dihydro-3H-pyrrolo[2,3-c]quinoline-1-methyl carboxylate]
 |  | 5.00 to 6.00 | 5.00 to 6.00 | CCOC(=O)c1c[nH]c2c(=O)[nH]c3ccc(-c4ccnc(N5CCN(C(C)=O)CC5)n4)cc3c12 [Compound 268, 8-[2-(4-Acetyl-piperazin-1-yl)-pyrimidin-4-yl]-4-oxo-4,5-dihydro-3H-pyrrolo[2,3-c]quinoline-1-ethyl carboxylate]
 |  | 6.00 to 7.00 | 5.00 to 6.00 | CCOC(=O)c1c[nH]c2c(=O)[nH]c3ccc(-c4ccnc(NC)n4)cc3c12 [Compound 263, 8-(2-Methylamino-pyrimidin-4-yl)-4-oxo-4,5-dihydro-3H-pyrrolo[2,3-c]quinoline-1-ethyl carboxylate formate]
